Laboratory results: PubChem BioAssay (NCI)
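Where inhibition never reached the appropriate level, the endpoint shown equals the highest concentration tested. Otherwise, values were interpolated linearly from a five-concentration, 48-hour dose response in 96-well plates. GI50 marks 50% less growth. TGI denotes the concentration required for complete inhibition of growth.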

What was measured:
Test in all cases: NCI tumour cell line growth inhibition, 48 h
HOP-62 NSCLC = test system: HOP-62 NSCLC
786-0 renal = test system: 786-0 renal
SNB-19 CNS = test system: SNB-19 CNS
LOX IMVI melanoma = test system: LOX IMVI melanoma
HCT-116 colon = test system: HCT-116 colon
ACHN renal = test system: ACHN renal
MALME-3M melanoma = test system: MALME-3M melanoma
COLO 205 colon = test system: COLO 205 colon
NCI-H23 lung = test system: NCI-H23 lung
A498 renal = test system: A498 renal
EKVX NSCLC = test system: EKVX NSCLC
NCI-H460 lung = test system: NCI-H460 lung
OVCAR-5 ovarian = test system: OVCAR-5 ovarian
SF-268 CNS = test system: SF-268 CNS
A549 NSCLC = test system: A549 NSCLC
UACC-257 melanoma = test system: UACC-257 melanoma
OVCAR-8 ovarian = test system: OVCAR-8 ovarian
HCC-2998 colon = test system: HCC-2998 colon
SK-MEL-2 melanoma = test system: SK-MEL-2 melanoma
K-562 leukemia = test system: K-562 leukemia
NCI-H226 lung = test system: NCI-H226 lung
CCRF-CEM leukemia = test system: CCRF-CEM leukemia
SR leukemia = test system: SR leukemia
HL-60(TB) leukemia = test system: HL-60(TB) leukemia
M14 melanoma = test system: M14 melanoma
MDA-MB-231 breast = test system: MDA-MB-231 breast
CAKI-1 renal = test system: CAKI-1 renal
MOLT-4 leukemia = test system: MOLT-4 leukemia
SF-539 CNS = test system: SF-539 CNS
HS 578T breast = test system: HS 578T breast
SF-295 CNS = test system: SF-295 CNS
U251 CNS = test system: U251 CNS
RXF 393 renal = test system: RXF 393 renal
HCT-15 colon = test system: HCT-15 colon
OVCAR-4 ovarian = test system: OVCAR-4 ovarian
MDA-MB-435 = test system: MDA-MB-435
SNB-75 CNS = test system: SNB-75 CNS
PC-3 prostate = test system: PC-3 prostate
SK-MEL-28 melanoma = test system: SK-MEL-28 melanoma
T-47D breast = test system: T-47D breast
TK-10 renal = test system: TK-10 renal
HOP-92 NSCLC = test system: HOP-92 NSCLC
MCF7 breast = test system: MCF7 breast
KM12 colon = test system: KM12 colon
SN12C renal = test system: SN12C renal
NCI/ADR-RES ovarian = test system: NCI/ADR-RES ovarian
SK-MEL-5 melanoma = test system: SK-MEL-5 melanoma
BT-549 breast = test system: BT-549 breast
UO-31 renal = test system: UO-31 renal
NCI-H522 lung = test system: NCI-H522 lung
SW-620 colon = test system: SW-620 colon
UACC-62 melanoma = test system: UACC-62 melanoma
OVCAR-3 ovarian = test system: OVCAR-3 ovarian
IGROV1 ovarian = test system: IGROV1 ovarian
DU-145 prostate = test system: DU-145 prostate
HT29 colon = test system: HT29 colon
SK-OV-3 ovarian = test system: SK-OV-3 ovarian
RPMI-8226 leukemia = test system: RPMI-8226 leukemia

Cc1cccc(Cl)c1NC(=O)c1cnc(Nc2cc(N3CCOCC3)cc(S(C)(=O)=O)c2)s1 gave a GI50 (HOP-62 NSCLC) of 198 nM, a TGI (HOP-62 NSCLC) greater than 10000 nM and a GI50 (786-0 renal) of 171 nM. The TGI (786-0 renal) was greater than 5310 nM, the GI50 (SNB-19 CNS) was greater than 4950 nM and the TGI (SNB-19 CNS) was greater than 10000 nM. For the same compound, the GI50 (LOX IMVI melanoma) was 97.7 nM, the TGI (LOX IMVI melanoma) was 938 nM and the GI50 (HCT-116 colon) was 313 nM. The TGI (HCT-116 colon) was greater than 10000 nM, the GI50 (ACHN renal) was 364 nM and the TGI (ACHN renal) was greater than 7110 nM. It also gave a GI50 (MALME-3M melanoma) greater than 4160 nM, a TGI (MALME-3M melanoma) greater than 10000 nM and a GI50 (COLO 205 colon) of 572 nM. For the same compound, the TGI (COLO 205 colon) was greater than 10000 nM, the GI50 (NCI-H23 lung) was greater than 10000 nM and the TGI (NCI-H23 lung) was greater than 10000 nM. The GI50 (A498 renal) was 254 nM, the TGI (A498 renal) was 2390 nM and the GI50 (EKVX NSCLC) was 1240 nM. For the same compound, the TGI (EKVX NSCLC) was greater than 10000 nM, the GI50 (NCI-H460 lung) was greater than 9520 nM and the TGI (NCI-H460 lung) was greater than 10000 nM. It also gave a GI50 (OVCAR-5 ovarian) of 257 nM, a TGI (OVCAR-5 ovarian) greater than 10000 nM and a GI50 (SF-268 CNS) of 354 nM. For the same compound, the TGI (SF-268 CNS) was greater than 10000 nM, the GI50 (A549 NSCLC) was 2160 nM and the TGI (A549 NSCLC) was greater than 10000 nM. For the same compound, the GI50 (UACC-257 melanoma) was greater than 4820 nM, the TGI (UACC-257 melanoma) was greater than 10000 nM and the GI50 (OVCAR-8 ovarian) was 516 nM. The TGI (OVCAR-8 ovarian) was greater than 10000 nM, the GI50 (HCC-2998 colon) was greater than 2530 nM and the TGI (HCC-2998 colon) was greater than 10000 nM. For the same compound, the GI50 (SK-MEL-2 melanoma) was greater than 10000 nM, the TGI (SK-MEL-2 melanoma) was greater than 10000 nM and the GI50 (K-562 leukemia) was 5.69 nM. For the same compound, the TGI (K-562 leukemia) was greater than 10000 nM, the TGI (NCI-H226 lung) was greater than 10000 nM and the GI50 (CCRF-CEM leukemia) was greater than 10000 nM. For the same compound, the TGI (CCRF-CEM leukemia) was greater than 10000 nM, the GI50 (SR leukemia) was greater than 10000 nM and the TGI (SR leukemia) was greater than 10000 nM. The GI50 (HL-60(TB) leukemia) was 9760 nM, the TGI (HL-60(TB) leukemia) was greater than 10000 nM and the GI50 (M14 melanoma) was 4010 nM. It also gave a TGI (M14 melanoma) greater than 10000 nM, a GI50 (MDA-MB-231 breast) of 141 nM and a TGI (MDA-MB-231 breast) greater than 3400 nM. For the same compound, the GI50 (CAKI-1 renal) was 97.5 nM, the TGI (CAKI-1 renal) was 742 nM and the GI50 (MOLT-4 leukemia) was 5710 nM. It also gave a TGI (MOLT-4 leukemia) greater than 10000 nM, a GI50 (SF-539 CNS) of 306 nM and a TGI (SF-539 CNS) greater than 10000 nM. For the same compound, the GI50 (HS 578T breast) was 138 nM, the TGI (HS 578T breast) was 826 nM and the GI50 (SF-295 CNS) was greater than 4230 nM. It also gave a TGI (SF-295 CNS) greater than 10000 nM, a GI50 (U251 CNS) greater than 5570 nM and a TGI (U251 CNS) greater than 10000 nM. It also gave a GI50 (RXF 393 renal) of 103 nM, a TGI (RXF 393 renal) of 994 nM and a GI50 (HCT-15 colon) of 3000 nM. For the same compound, the TGI (HCT-15 colon) was greater than 10000 nM, the GI50 (OVCAR-4 ovarian) was greater than 10000 nM and the TGI (OVCAR-4 ovarian) was greater than 10000 nM. The GI50 (MDA-MB-435) was greater than 9630 nM, the TGI (MDA-MB-435) was greater than 10000 nM and the GI50 (SNB-75 CNS) was 20.2 nM. For the same compound, the TGI (SNB-75 CNS) was 196 nM, the GI50 (PC-3 prostate) was 1460 nM and the TGI (PC-3 prostate) was greater than 10000 nM. It also gave a GI50 (SK-MEL-28 melanoma) greater than 5140 nM, a TGI (SK-MEL-28 melanoma) greater than 10000 nM and a GI50 (T-47D breast) of 292 nM. For the same compound, the TGI (T-47D breast) was greater than 10000 nM, the GI50 (TK-10 renal) was 132 nM and the TGI (TK-10 renal) was 1150 nM. It also gave a GI50 (HOP-92 NSCLC) of 29.4 nM, a TGI (HOP-92 NSCLC) of 303 nM and a GI50 (MCF7 breast) greater than 8990 nM. The TGI (MCF7 breast) was greater than 10000 nM, the GI50 (KM12 colon) was greater than 10000 nM and the TGI (KM12 colon) was greater than 10000 nM. It also gave a GI50 (SN12C renal) of 455 nM, a TGI (SN12C renal) greater than 10000 nM and a GI50 (NCI/ADR-RES ovarian) of 9940 nM. The TGI (NCI/ADR-RES ovarian) was greater than 10000 nM, the GI50 (SK-MEL-5 melanoma) was greater than 8890 nM and the TGI (SK-MEL-5 melanoma) was greater than 10000 nM. It also gave a GI50 (BT-549 breast) of 9750 nM, a TGI (BT-549 breast) greater than 10000 nM and a GI50 (UO-31 renal) of 199 nM. It also gave a TGI (UO-31 renal) greater than 6980 nM, a GI50 (NCI-H522 lung) of 264 nM and a TGI (NCI-H522 lung) greater than 10000 nM. For the same compound, the GI50 (SW-620 colon) was greater than 10000 nM, the TGI (SW-620 colon) was greater than 10000 nM and the GI50 (UACC-62 melanoma) was 922 nM. The TGI (UACC-62 melanoma) was greater than 10000 nM, the GI50 (OVCAR-3 ovarian) was 476 nM and the TGI (OVCAR-3 ovarian) was greater than 10000 nM. It also gave a GI50 (IGROV1 ovarian) of 54.1 nM, a TGI (IGROV1 ovarian) of 521 nM and a GI50 (DU-145 prostate) of 1200 nM. It also gave a TGI (DU-145 prostate) of 5140 nM, a GI50 (HT29 colon) of 203 nM and a TGI (HT29 colon) of 663 nM. For the same compound, the GI50 (SK-OV-3 ovarian) was 191 nM, the TGI (SK-OV-3 ovarian) was greater than 8300 nM and the GI50 (RPMI-8226 leukemia) was greater than 10000 nM. For the same compound, the TGI (RPMI-8226 leukemia) was greater than 10000 nM.
